Experimental data as given in patent US12071411B2, “Inhibitors of HIF-2α and methods of use thereof” (ARCUS BIOSCIENCES, INC., priority 2021, dated 2024).

What was measured:
HIF-2α [1] = target: T1, HIF-2α (Homo sapiens, UniProt Q99814); test: HIF-2α Luciferase Reporter Assay (serum free) in HIF-Luc-786-0 cells; assay type: cell-based; settings: Opti-MEM, 786-0 reporter cells, 20 hours incubation
How it was run: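 786-0 cells stably transduced with HIF luciferase reporter, 20,000 cells/well in serum-free Opti-MEM, compounds (50 uM downward, 1% DMSO) 20 h at 37 °C. ONE-Glo luminescence normalized to DMSO and no-cell controls; IC50 from four-parameter fit.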

HIF-2α [2] = target: T1, HIF-2α; test: HIF-2α Luciferase Reporter Assay (serum), HRE-luciferase 786-0 cells in 100% human serum; assay type: cell-based; settings: for IC50: 100% human serum, 786-0 reporter cells, overnight incubation, read-out: Serum Potency; for Serum Shift (approximate): ratio of IC50 in 100% serum to IC50 in serum free conditions
How it was run: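 786-0 cells stably expressing an HRE-luciferase reporter were plated and rested 3 h. They were then treated overnight at 37 °C with compound diluted in 100% human serum. Serum was replaced with Opti-MEM, ONE-Glo luminescence was read, and IC50 came from a 4-parameter logistic fit.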

T1 sequence (Q99814 whole entry): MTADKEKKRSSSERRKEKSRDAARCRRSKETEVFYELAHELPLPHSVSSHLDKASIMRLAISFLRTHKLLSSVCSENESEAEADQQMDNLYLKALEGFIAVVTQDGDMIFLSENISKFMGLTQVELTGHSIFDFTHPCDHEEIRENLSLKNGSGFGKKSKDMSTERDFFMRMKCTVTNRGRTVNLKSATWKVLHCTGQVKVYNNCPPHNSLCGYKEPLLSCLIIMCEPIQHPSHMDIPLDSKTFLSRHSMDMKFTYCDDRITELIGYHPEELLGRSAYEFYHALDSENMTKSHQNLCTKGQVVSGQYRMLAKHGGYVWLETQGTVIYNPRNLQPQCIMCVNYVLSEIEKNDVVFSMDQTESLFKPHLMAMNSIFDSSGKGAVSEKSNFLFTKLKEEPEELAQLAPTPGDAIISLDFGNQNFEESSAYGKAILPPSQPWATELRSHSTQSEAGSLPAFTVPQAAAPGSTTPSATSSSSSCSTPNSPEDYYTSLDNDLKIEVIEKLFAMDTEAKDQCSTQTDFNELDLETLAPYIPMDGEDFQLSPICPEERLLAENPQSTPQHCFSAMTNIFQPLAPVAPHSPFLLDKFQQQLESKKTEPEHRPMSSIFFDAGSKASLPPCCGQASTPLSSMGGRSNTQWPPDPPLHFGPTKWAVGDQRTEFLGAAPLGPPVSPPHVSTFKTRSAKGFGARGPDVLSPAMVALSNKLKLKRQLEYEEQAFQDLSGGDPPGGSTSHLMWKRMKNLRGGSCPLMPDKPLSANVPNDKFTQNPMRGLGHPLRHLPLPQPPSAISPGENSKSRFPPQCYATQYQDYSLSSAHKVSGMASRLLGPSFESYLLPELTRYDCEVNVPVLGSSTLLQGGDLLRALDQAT

Row | Structure (SMILES) | IC50 (HIF-2α [1]) [µM] | IC50 (HIF-2α [2]) [µM] | Serum Shift (approximate) (HIF-2α [2])
1 | O[C@H]1c2c(C(F)(F)F)nn(C3CC4(C3)CC(F)(F)C4)c2C[C@H]1F [Example 67, (4S,5R)-1-{6,6-difluorospiro[3.3]heptan-2-yl}-5-fluoro-3-(trifluoromethyl)-4,6-dihydrocyclopenta[c]pyrazol-4-ol] | 0.1 to 1 | 0.1 to 1 | 7
2 | O[C@H]1c2c(C(F)(F)F)nn([C@@H]3C[C@@H](F)[C@@H](F)[C@@H](F)C3)c2CC1(F)F [Example 70, (4S)-5,5-difluoro-1-[(3R,5S)-3,4,5-trifluorocyclohexyl]-3-(trifluoromethyl)-4,6-dihydrocyclopenta[c]pyrazol-4-ol] | 0.1 to 1 | 0.1 to 1 | 0
3 | O[C@H]1c2c(C(F)(F)F)nn([C@H]3C[C@H](F)C[C@H](F)C3)c2CC1(F)F [Example 71, (4S)-1-[(3R,5S)-3,5-difluorocyclohexyl]-5,5-difluoro-3-(trifluoromethyl)-4,6-dihydrocyclopenta[c]pyrazol-4-ol] | < 0.1 | > 1 | 18
4 | O[C@H]1c2c(C(F)(F)F)nn(CCc3cnoc3)c2CC1(F)F [Example 75, (4S)-5,5-difluoro-1-[2-(1,2-oxazol-4-yl)ethyl]-3-(trifluoromethyl)-4,6-dihydrocyclopenta[c]pyrazol-4-ol] | < 0.1 | > 1 | 5
5 | O[C@H]1c2c(C(F)(F)F)nn(CCc3ccsc3)c2CC1(F)F [Example 76, (4S)-5,5-difluoro-1-(2-thiophen-3-ylethyl)-3-(trifluoromethyl)-4,6-dihydrocyclopenta[c]pyrazol-4-ol] | 0.1 to 1 | > 1 | 17
6 | O[C@H]1c2c(C(F)(F)F)nn(CCc3ccco3)c2CC1(F)F [Example 77, (4S)-5,5-difluoro-1-[2-(furan-2-yl)ethyl]-3-(trifluoromethyl)-1H,4H,5H,6H-cyclopenta[c]pyrazol-4-ol] | < 0.1 | > 1 | 10
7 | O[C@H]1c2c(C(F)(F)F)nn(CCc3ccoc3)c2CC1(F)F [Example 78, (4S)-5,5-difluoro-1-[2-(furan-3-yl)ethyl]-3-(trifluoromethyl)-1H,4H,5H,6H-cyclopenta[c]pyrazol-4-ol] | < 0.1 | > 1 | 8
8 | O[C@H]1c2c(C(F)(F)F)nn(CCc3cccc(F)c3)c2CC1(F)F [Example 79, (4S)-5,5-difluoro-1-[2-(3-fluorophenyl)ethyl]-3-(trifluoromethyl)-1H,4H,5H,6H-cyclopenta[c]pyrazol-4-ol] | < 0.1 | > 1 | 13
9 | O[C@H]1c2c(C(F)(F)F)nn([C@@H]3CCC[C@@H](C(F)(F)F)C3)c2CC1(F)F [Example 80, (4S)-5,5-difluoro-3-(trifluoromethyl)-1-[(1R)-3-(trifluoromethyl)cyclohexyl]-1H,4H,5H,6H-cyclopenta[c]pyrazol-4-ol] | 0.1 to 1 | > 1 | >41
10 | O[C@H]1c2c(C(F)(F)F)nn([C@H]3CCC[C@H](C(F)(F)F)C3)c2CC1(F)F [Example 81, (4S)-5,5-difluoro-3-(trifluoromethyl)-1-[(1S,3S)-3-(trifluoromethyl)cyclohexyl]-1H,4H,5H,6H-cyclopenta[c]pyrazol-4-ol] | 0.1 to 1 | > 1 | 49
11 | O[C@H]1c2c(C(F)(F)F)nn([C@@H]3CCC[C@H](C(F)(F)F)C3)c2CC1(F)F [Example 82, (4S)-5,5-difluoro-3-(trifluoromethyl)-1-[(1R,3S)-3-(trifluoromethyl)cyclohexyl]-1H,4H,5H,6H-cyclopenta[c]pyrazol-4-ol] | 0.1 to 1 | > 1 | 23
12 | C[C@H](C#N)CCn1nc(C(F)(F)F)c2c1C[C@@H](F)[C@H]2O [Example 83, (2S)-4-[(4S,5R)-5-fluoro-4-hydroxy-3-(trifluoromethyl)-1H,4H,5H,6H-cyclopenta[c]pyrazol-1-yl]-2-methylbutanenitrile] | 0.1 to 1 | > 1 | 3
13 | O=S1(=O)CC(Cn2nc(C(F)(F)F)c3c2C[C@@H](F)[C@H]3O)C1 [Example 84, 3-{[(4S,5R)-5-fluoro-4-hydroxy-3-(trifluoromethyl)-1H,4H,5H,6H-cyclopenta[c]pyrazol-1-yl]methyl}-1λ^6-thietane-1,1-dione] | 0.1 to 1 | > 1 | 2
14 | O[C@H]1c2c(C(F)(F)F)nn(C3COCC(F)(F)C3)c2CC1(F)F (stereo partly drawn) [Example 85, (4S)-1-(5,5-difluorooxan-3-yl)-5,5-difluoro-3-(trifluoromethyl)-1H,4H,5H,6H-cyclopenta[c]pyrazol-4-ol] | 0.1 to 1 | > 1 | 6
15 | O=S1(=O)CCCC(n2nc(C(F)(F)F)c3c2CC(F)(F)[C@H]3O)C1 (stereo partly drawn) [Example 86, 3-[(4S)-5,5-difluoro-4-hydroxy-3-(trifluoromethyl)-1H,4H,5H,6H-cyclopenta[c]pyrazol-1-yl]-1λ^6-thiane-1,1-dione] | 0.1 to 1 | 0.1 to 1 | 3
16 | O[C@H]1c2c(C(F)(F)F)nn([C@@H]3COCC(F)(F)C3)c2CC1(F)F [Example 87, (4S)-1-[(3S)-5,5-difluorooxan-3-yl]-5,5-difluoro-3-(trifluoromethyl)-1H,4H,5H,6H-cyclopenta[c]pyrazol-4-ol] | 0.1 to 1 | > 1 | 7
17 | O[C@H]1c2c(C(F)(F)F)nn([C@@H]3C[C@H](F)C[C@H](F)C3)c2CC1(F)F [Example 89, (4S)-1-[(3R,5S)-3,5-difluorocyclohexyl]-5,5-difluoro-3-(trifluoromethyl)-4,6-dihydrocyclopenta[c]pyrazol-4-ol] | < 0.1 | 0.1 to 1 | 7
18 | O[C@H]1c2c(C(F)(F)F)nn([C@H]3CC[C@H](F)CC3)c2CC1(F)F [Example 96, (4S)-5,5-difluoro-1-(4-fluorocyclohexyl)-3-(trifluoromethyl)-4,6-dihydrocyclopenta[c]pyrazol-4-ol] | < 0.1 | > 1 | 7
19 | C[C@@H](C#N)CCn1nc(C(F)(F)F)c2c1CCC(F)(F)[C@H]2O [Example 99, (2R)-4-[(4S)-5,5-difluoro-4-hydroxy-3-(trifluoromethyl)-6,7-dihydro-4H-indazol-1-yl]-2-methylbutanenitrile] | < 0.1 | 0.1 to 1 | 3
20 | C[C@H](C#N)CCn1nc(C(F)(F)F)c2c1CCC(F)(F)[C@H]2O [Example 100, (2S)-4-[(4S)-5,5-difluoro-4-hydroxy-3-(trifluoromethyl)-6,7-dihydro-4H-indazol-1-yl]-2-methylbutanenitrile] | 0.1 to 1 | > 1 | 4
21 | CCO[C@H](CCn1nc(C(F)(F)F)c2c1CC(F)(F)[C@H]2O)C(F)(F)F [Example 101, (4S)-1-[(3R)-3-ethoxy-4,4,4-trifluorobutyl]-5,5-difluoro-3-(trifluoromethyl)-4,6-dihydrocyclopenta[c]pyrazol-4-ol] | < 0.1 | > 1 | 11
